Data as given in article PMC7157554, “Anti-Trypanosomal Proteasome Inhibitors Cure Hemolymphatic and Meningoencephalic Murine Infection Models of African Trypanosomiasis” (Tropical Medicine and Infectious Disease, 2020).
Like-named read-outs stand apart in the source and are kept apart here.

What was measured:
[1] = PAMPA (parallel artificial membrane permeability assay); format: in vitro ADME; settings: FA: fraction absorbed
Method: (§1) Test compounds’ solubility was determined in a high-throughput thermodynamic solubility assay, as described previously. The PAMPA (parallel artificial membrane) assays were carried out, using a standard protocol. Plasma protein binding was determined by using mouse blood, whilst brain tissue binding was determined by using rat brain tissue homogenate. Intrinsic metabolic clearances were determined in mouse liver microsomes, using the compound depletion approach and LC–MS/MS quantification.

[2] = LogD (measured octanol water co-efficient); format: physicochemical
[3] = Intrinsic metabolic clearance in mouse liver microsomes; format: in vitro ADME
Method: as §1

[4] = Brain-to-plasma drug concentration ratio in mice; format: in vivo; settings: mouse, read-out: B/P Ratio; for Kp at 5 min: 5 min after 1 mg/kg i.v.; for Kp at 60 min: 60 min after 1 mg/kg i.v.
Method: For measurement of the brain-to-plasma drug concentration ratio, mice were dosed intravenously with 1 mg/kg compounds. Mice were euthanized at 5 and 60 min post-dosing, and blood and brains were collected. The compound concentrations in plasma and brains were measured, following the protocol described above.

T. b. brucei STIB795 = test: Hemolymphatic mouse model (stage 1 HAT efficacy model); format: in vivo; settings: for % Cured / Mean day of Relapse / Mice Cured/Total: four days; for Minimum efficacious dose: QD dosing for four days, stage 1 model
Method: The T. b. brucei STIB795 acute mouse model mimics the hemolymphatic stage of the sleeping sickness disease. We used six female NMRI mice per experimental group, divided into two cages. Heparinized blood from a donor mouse with approximately 5 × 10^6 per mL parasitemia was suspended in phosphate saline glucose (PSG), to obtain a parasite suspension of […]. Each mouse was injected with 0.25 mL of parasite suspension (10^4 bloodstream forms of T. b. brucei STIB795) intraperitoneally. All compounds were formulated in 0.5% methylcellulose and 0.5% Tween80. Three days post-infection, test compounds were administered orally on four consecutive days, in a volume of 100 µL/10 g. Three mice served as infected–untreated controls. […] Until 31 days post-infection, parasitemia was monitored microscopically by tail-blood examination twice a week. Mice were considered cured when there was no parasitemia detected in the tail blood. All the results from the individual experiments were reported as number of mice cured over total number of mice treated. A Kaplan–Meier plot was used for representing the number of mice cured at different treatment doses.

[5] = tested on: T. b. brucei (GVR35-VSL2); test: Meningoencephalic mouse model (stage 2 HAT efficacy model, GVR35) with bioluminescence imaging; format: in vivo; settings: for % Cured / Mean Day of Relapse / Mice Cured/Total / Day of Relapse, mice which did not relapse (value in parenthesis): seven days; for Dose that completely cured stage 2 infection: HAT mouse model
Method: The GVR35 mouse CNS model mimics the second (meningoencephalic) stage of African trypanosomiasis. Female CD1 mice (~8 weeks old, from Charles River) were injected intraperitoneally (i.p.) with 3 × 10^4 T. b. brucei (GVR35-VSL2) bloodstream-form parasites. As controls, a group of three untreated mice and another group of three mice treated with diminazene aceturate (DA) were included. […] Mice treated with DA usually relapse after 42 days post-infection. […]
Blood parasitemia was quantified weekly from day 21/22, by microscopy of blood from the tail vein. Mice were imaged for bioluminescence using an in vivo imaging system (IVIS) prior to treatment on day 21/22, and weekly after treatment, as described previously. Briefly, mice, in groups of three, were injected i.p. with 150 mg of D-luciferin (Promega) per kilogram body weight in PBS and imaged after 10 min, using an IVIS Spectrum (PerkinElmer, Waltham, Massachusetts MA, USA). Living Image Software (PerkinElmer) was used for acquisition and analysis of bioluminescence imaging data. Bioluminescence in the same rectangular region of interest (ROI) on whole-body mouse images was quantified and is shown in total flux (photons per second). Images were cropped to the ROIs and composites of images from representative mice are shown. Uncured mice were euthanized within 1 or 2 days of parasite detection in the blood. Cured mice were euthanized between day 92 and 101 post-infection. All the results from the individual experiments were reported as number of mice cured over total number of mice treated. A Kaplan–Meier plot was used for representing the number of mice cured at different treatment doses.

[6] = Intravenous pharmacokinetics in mouse; format: in vivo; settings: for T1/2 / Vd: i.v. 5 mg/kg; for T1/2: elimination half-life; for clearance / half-life / Vd: male, BALB/c, iv; for clearance / half-life: 5 mg/kg; for half-life: i.v., read-out: Elimination half-life (converted); for Vd: read-out: Vss
Method: Determination of intravenous (i.v.) and per oral (p.o.) pharmacokinetics (PK) were carried out by using male BALB/c mice. […] To avoid any granular material, the solution was filtered, using a 0.45 μm syringe filter. The filtered solutions were dosed intravenously to mice via the lateral tail vein, at 5 mg/kg, with a dosing volume of 2 mL/kg. For all the p.o. PK studies, compounds were resuspended in 0.5% v/v methyl cellulose in 0.5 % v/v tween 80 solution. For 20 mg/kg dosing, 200 µL of compounds was administered orally to mice. […] Blood samples were collected into heparin microtainers and centrifuged, and then plasma was separated and frozen until analysis. Plasma samples (20 μL) were extracted with acetonitrile:methanol (3:1) containing internal standard. […] The supernatant was transferred to a 96-well analysis plate and analyzed, using optimized LC/MS/MS conditions. For every experiment, 3 mice were used per compound, per dose. The plasma concentration-time profile was obtained by plotting the mean value from the three animals at each time point. Various PK parameters, such as Cmax (maximum concentration), area under curve (AUC) and oral bioavailability (F) for compounds, were calculated by non-compartmental regression analysis, using an in-house fitting program developed at GNF [8]. All the in-life studies were carried out under protocols approved by the Animal Care and Use Committee (IACUC), following animal ethics guidelines of GNF.

[7] = tested on: MDR1-MDCK (Multi Drug Resistant 1 overexpressing Madin–Darby canine kidney cells); test: in vitro; settings: dog
Method: In order to evaluate potential of brain permeability, all three compounds were tested in an MDR1-MDCK permeability assay. […] Those that have a high efflux ratio are generally substrates for Pgp transporters, thereby having a higher propensity to be excluded from the brain. […] To assess directly the TP compounds’ ability to penetrate brain, mice were dosed with compound, and plasma and brains were collected after 5 and 60 min following intravenous dosing.

[8] = liver microsomes, read-out: Mouse liver microsomal clearance

## Cc1nc(C)c(C(=O)Nc2ccc(F)c(-c3nc4ncc(C(C)(C)C)cn4n3)c2)o1 [NITD689]
[1]
  PAMPA Permeability (% FA): 99.1 % FA
[2]
  logD: 3.05
[3]; [8]
  microsomal CLint: 7.41 µL/min/mg
[4]; brain and plasma, intravenous
  Kp at 5 min: 0.12
  Kp at 60 min: 0.12
T. b. brucei STIB795; 1 mg/kg QD oral
  % Cured: 0%
  Mean day of Relapse: 19.5 days post infection
  Mice Cured/Total: 0/6
T. b. brucei STIB795; 1.5 mg/kg BID oral
  % Cured: 16.7%
  Mean day of Relapse: 21 days post infection
  Mice Cured/Total: 1/6
T. b. brucei STIB795; 3 mg/kg QD oral
  % Cured: 50%
  Mean day of Relapse: 21 days post infection
  Mice Cured/Total: 3/6
T. b. brucei STIB795; 10 mg/kg QD oral
  % Cured: 100%
  Mean day of Relapse: >31 days post infection
  Mice Cured/Total: 6/6
T. b. brucei STIB795
  Minimum efficacious dose: 10 mg/kg
[5]; 15 mg/kg BID oral
  % Cured: 0%
  Mean Day of Relapse: 42 days post infection
  Mice Cured/Total: 0/6
[5]; 15 mg/kg twice daily and 30 mg/kg once daily
  Cure outcome: failed to cure
[5]; 30 mg/kg BID oral
  % Cured: 100%
  Mean Day of Relapse: >94 days post infection
  Mice Cured/Total: 6/6
[5]; 30 mg/kg QD oral
  % Cured: 0%
  Mean Day of Relapse: 50 days post infection
  Mice Cured/Total: 0/6
[5]; 30 mg/kg twice daily and 60 mg/kg once daily
  Cure outcome: complete cure
[5]; 60 mg/kg QD oral
  % Cured: 100%
  Mean Day of Relapse: >94 days post infection
  Mice Cured/Total: 6/6
[5]
  Dose that completely cured stage 2 infection: 60 mg/kg
[6]
  T1/2: 1.6 H
[6]; plasma
  clearance: 13.5 mL/min/kg
  half-life: 1.6 h
  Vd: 1.5 L/kg
[7]
  MDR1-MDCK A–B: 32.6
  MDR1-MDCK B–A: 29.2

## Cc1nc(C)c(C(=O)Nc2ccc(F)c(-c3nc4ncc(-c5ccccc5)cn4n3)c2)o1 [GNF3849]
[1]
  PAMPA Permeability (% FA): 96 % FA
[2]
  logD: 3.31
[3]; [8]
  microsomal CLint: 15.2 µL/min/mg
[4]; brain and plasma, intravenous
  Kp at 5 min: 0.22
  Kp at 60 min: 0.28
T. b. brucei STIB795; 7.5 mg/kg QD oral
  % Cured: 100%
  Mean day of Relapse: >31 days post infection
  Mice Cured/Total: 6/6
T. b. brucei STIB795; 25 mg/kg QD oral
  % Cured: 100%
  Mean day of Relapse: >31 days post infection
  Mice Cured/Total: 6/6
T. b. brucei STIB795; 75 mg/kg QD oral
  % Cured: 100%
  Mean day of Relapse: >31 days post infection
  Mice Cured/Total: 6/6
T. b. brucei STIB795; all doses: 7.5, 25 and 75 mg/kg, once daily, for four days
  Cure outcome: complete cure
[5]; 7.5 mg/kg QD oral
  % Cured: 0%
  Mean Day of Relapse: 37 days post infection
  Mice Cured/Total: 0/6
[5]; 75 mg/kg QD oral
  % Cured: 50%
  Day of Relapse, mice which did not relapse (value in parenthesis): > 92 days post infection
  Mice Cured/Total: 3/6
[5]; 75 mg/kg QD oral, mice which relapsed
  Mean Day of Relapse: 60 days post infection
[5]; 7.5 and 75 mg/kg, once daily
  Cure outcome: failed to achieve complete cure
[6]
  T1/2: 6.5 H
[6]; plasma
  half-life: 6.5 h
  Vd: 1.2 L/kg
[7]
  MDR1-MDCK A–B: 4.5
  MDR1-MDCK B–A: 14.1

## Cc1nc(C)c(C(=O)Nc2ccc(F)c(-c3nc4ncc(-c5ccccn5)cn4n3)c2)o1 [GNF6702]
[1]
  PAMPA Permeability (% FA): 92 % FA
[2]
  logD: 2.32
[3]; microsomes
  microsomal CLint: 34.1 µL/min/mg
[4]; in vivo
  Kp at 5 min: 0.13
  Kp at 60 min: 0.17
T. b. brucei STIB795; 0.1 mg/kg QD oral
  % Cured: 0%
  Mean day of Relapse: 6.83 days post infection
T. b. brucei STIB795; 0.3 mg/kg QD oral
  % Cured: 33.3%
  Mean day of Relapse: 19 days post infection
T. b. brucei STIB795; 1 mg/kg QD oral
  % Cured: 100%
  Mean day of Relapse: >31 days post infection
T. b. brucei STIB795; 3 mg/kg QD oral
  % Cured: 100%
  Mean day of Relapse: >31 days post infection
T. b. brucei STIB795; 10 mg/kg QD oral
  % Cured: 100%
  Mean day of Relapse: >31 days post infection
T. b. brucei STIB795
  Minimum efficacious dose: 1 mg/kg
[5]; 3 mg/kg QD oral
  % Cured: 0%
  Mean Day of Relapse: 47 days post infection
[5]; 10 mg/kg QD oral
  % Cured: 66%
  Day of Relapse, mice which did not relapse (value in parenthesis): > 92 days post infection
[5]; 10 mg/kg QD oral, mice which relapsed
  Mean Day of Relapse: 50 days post infection
[5]; 30 mg/kg QD oral
  % Cured: 100%
  Mean Day of Relapse: >92 days post infection
[5]; 100 mg/kg QD oral
  % Cured: 100%
  Mean Day of Relapse: >92 days post infection
[5]; 30 and 100 mg/kg, once daily, oral
  Cure outcome: complete cure
[5]
  Dose that completely cured stage 2 infection: 30 mg/kg
[6]
  T1/2: 7.0 H
[6]; in vivo
  Vd: 1.2 L/kg
[6]; plasma
  clearance: 2.26 mL/min/kg
[7]
  MDR1-MDCK A–B: 8.3
  MDR1-MDCK B–A: 22.1
